Source: patent US10208056B2, “Condensed tricyclic compounds as protein kinase inhibitors” (FUNDACIÓN DEL SECTOR PÚBLICO ESTATAL CENTRO NACIONAL DE …, priority 2015, dated 2019)

Columns and labels:
[1] = test system: BXPC-3; assay: Combination assay, BXPC-3; assay type: cell-based
Experimental: (§1) The combination index (CI) of combinations of certain example compounds and various chemotherapeutic agents in the CellTitetI-Glo® in vitro cell proliferation assays may be tested. A combination index score is calculated by the Chou and Talalay method (CalcuSyn software, Biosoft). The strength of synergy is scored using the ranking system Chou and Talalay: CI less than 0.8 indicates synergy, CI between 0.8 and 1.2 indicates additivity and CI greater than 1.2 indicates antagonism.
(§2) The EC50 values of representative combinations are also calculated. The individually measured EC50 values of the chemotherapeutic agent and the example compounds are compared to the EC50 value of the combination. The cell lines are characterised by tumor type. Combination assays are performed as described in: “Pim 1 kinase inhibitor ETP-45299 suppresses cellular proliferation and synergizes with PI3K inhibition”. Blanco-Aparicio, Carmen; Collazo, Ana Maria Garcia; Oyarzabal, Julen; Leal, Juan F.; Albaran, Maria Isabel; Lima, Francisco Ramos; Pequeno, Belen; Ajenjo, Nuria; Becerra, Mercedes; Alfonso, Patricia; Reymundo, Maria Isabel; Palacios, Irene; Mateos, Genoveva; Quinones, Helena; Corrionero, Ana; Carnero, Amancio; Pevarello, Paolo; Lopez, Ana Rodriguez; Fominaya, Jesus; Pastor, Joaquin; Bischoff, James R. Cancer Letters (Shannon, Ireland) 2011, 300(2), 145-153

[2] = test system: MDAMB231; assay: Combination assay, MDAMB231; assay type: cell-based
Experimental: as §1, §2

[3] = test system: panel of 468 kinases; assay: KINOMEscan kinase panel selectivity score; assay type: binding
Excerpt: Compounds of the invention may have the advantage that they are effective inhibitors of protein kinases (e.g. CDK8 and/or haspin). […] For instance, the compounds of the invention may be selective inhibitors of certain protein or lipid kinases. […] Compounds that are selective inhibitors may be identified by screening in a 453-468 kinases panel (KINOMEscan™ from DiscoveRx). For example, selective inhibitors may show a selectivity score of S(20)<0.05.
Selectivity Score (or S-score) is a quantitative measure of a compound's selectivity. It is calculated by dividing the number of kinases to which a compound binds by the total number of distinct kinases tested (i.e. S=Number of hits/Number of assays).

[4] = test system: SW620; assay: Combination assay, SW620; assay type: cell-based, human
In short: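 Cells treated with example compounds combined with chemotherapeutic agents, proliferation read by CellTiter-Glo. Combination index from the Chou–Talalay method (CI <0.8 synergy, 0.8–1.2 additivity, >1.2 antagonism); EC50 of the combination also derived alongside single-agent EC50s.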

[5] = test system: SKMEL19; assay: Combination assay, SKMEL19; assay type: cell-based
Experimental: as §1, §2

[6] = test system: A549; assay: Combination assay, A549; assay type: cell-based
Experimental: as §1, §2

[7] = test system: SW620 human colon cancer xenografts; assay: In vivo target modulation studies (P-STAT1 S727 in tumors); set-up: species or system mice; details: single oral dose 5 mg/kg; tumors sampled 1, 4, 8 and 24 h
Experimental: The in vivo potency of the compounds was measured determining target modulation in human colon xenografts. Eight weeks old female athymic nude mice (Harlan Sprague Dawley Inc) are subcutaneously grafted with 10*10^6 SW620 human colon cancer cells. When the tumors reach a size of 200-400 mm^3 the mice are dosed orally with 5 mg/kg of Example 43 or vehicle. Tumors are excised 1, 4, 8 and 24 h after administration (n=3 mice per time point) and are processed for western blot and for HPLC/MS/MS in order to determine the concentration for Example 43 in the tumor. […] The supernatants are removed and protein concentration is determined by Bradford method (Bio-Rad Protein Assay). […] 30-60 μg of total proteins extracts are analyzed by western blot for STAT1P/STAT1 modulation as has been described in the cellular CDK8 inhibition assay. […] Specific solid phase extraction methods as well as LC-MS/MS analysis and quantification methods were developed, reaching LLOQs of 1 ng/ml. […]

[8] = test system: DU145; assay: Combination assay, DU145; assay type: cell-based
Experimental: as §1
The EC50 values of representative combinations are also calculated. The individually measured EC50 values of the chemotherapeutic agent and the example compounds are compared to the EC50 value of the combination. The cell lines are characterised by tumor type. […] Blanco-Aparicio, Carmen; Collazo, Ana Maria Garcia; Oyarzabal, Julen; Leal, Juan F.; Albaran, Maria Isabel; Lima, Francisco Ramos; Pequeno, Belen; Ajenjo, Nuria; Becerra, Mercedes; Alfonso, Patricia; Reymundo, Maria Isabel; Palacios, Irene; Mateos, Genoveva; Quinones, Helena; Corrionero, Ana; Carnero, Amancio; Pevarello, Paolo; Lopez, Ana Rodriguez; Fominaya, Jesus; Pastor, Joaquin; Bischoff, James R. Cancer Letters (Shannon, Ireland) 2011, 300(2), 145-153

[9] = BXPC-3, combination with Crizotinib
[10] = BXPC-3, combination with Elesclomol
[11] = MDAMB231, combination with Elesclomol
[12] = SW620, combination with ABT-751
[13] = SW620, combination with Alisertib
[14] = SW620, combination with Crizotinib
[15] = SW620, combination with Elesclomol
[16] = SW620, combination with Oxaliplatin
[17] = SKMEL19, combination with Crizotinib
[18] = SKMEL19, combination with Elesclomol
[19] = A549, combination with Elesclomol
[20] = DU145, combination with Alisertib
[21] = DU145, combination with Crizotinib

CCn1c(C(N)=O)cc2c1-c1ccncc1OC2(C)C [Example 43]
Combination index (CI) [1, 9]: 0.72 | Synergy [1, 9]: ++ (0.3 < CI < 0.7 (++)) | Combination index (CI) [1, 10]: 0.25 | Synergy [1, 10]: ++ (0.3 < CI < 0.7 (++)) | GI50 ([1]; Homo sapiens, BXPC-3, example compound alone, read-out: CDK8 inh GI50): 5 µM | GI50 ([2]; Homo sapiens, MDA-MB-231, MDAMB231, example compound alone, read-out: CDK8 inh GI50): 5 µM | Combination index (CI) [2, 11]: 0.59 | Synergy [2, 11]: ++ (0.3 < CI < 0.7 (++)) | Selectivity score S(20) [3]: 0.038 | GI50 ([4]; Homo sapiens, SW-620, SW620, example compound alone, read-out: CDK8 inh GI50): 4 µM | Combination index (CI) [4, 12]: 0.18 | Synergy [4, 12]: +++ (0.1 < CI < 0.3 (+++)) | Combination index (CI) [4, 13]: 0.52 | Synergy [4, 13]: ++ (0.3 < CI < 0.7 (++)) | Combination index (CI) [4, 14]: 0.65 | Synergy [4, 14]: ++ (0.3 < CI < 0.7 (++)) | Combination index (CI) [4, 15]: 0.05 | Synergy [4, 15]: ++++ (CI < 0.1 (++++)) | Combination index (CI) [4, 16]: 0.53 | Synergy [4, 16]: ++ (0.3 < CI < 0.7 (++)) | Combination index (CI) ([4]; SW620, combination with Taxol): 0.28 | Synergy ([4]; SW620, combination with Taxol): +++ (0.1 < CI < 0.3 (+++)) | GI50 ([5]; Homo sapiens, SK-MEL19, SKMEL19, example compound alone, read-out: CDK8 inh GI50): 1.25 µM | Combination index (CI) [5, 17]: 0.55 | Synergy [5, 17]: ++ (0.3 < CI < 0.7 (++)) | Combination index (CI) [5, 18]: 0.49 | Synergy [5, 18]: ++ (0.3 < CI < 0.7 (++)) | Combination index (CI) [6, 19]: 0.63 | Synergy [6, 19]: ++ (0.3 < CI < 0.7 (++)) | GI50 ([6]; Homo sapiens, A549, example compound alone, read-out: CDK8 inh GI50): 5 µM | target modulation in vivo, P-STAT1 (S727) [7]: Clear target modulation is observed at 1 and 4 h | Combination index (CI) [8, 20]: 0.65 | Synergy [8, 20]: ++ (0.3 < CI < 0.7 (++)) | Combination index (CI) [8, 21]: 0.44 | Synergy [8, 21]: ++ (0.3 < CI < 0.7 (++)) | Combination index (CI) ([8]; DU145, combination with Taxol): 0.21 | Synergy ([8]; DU145, combination with Taxol): +++ (0.1 < CI < 0.3 (+++)) | GI50 ([8]; Homo sapiens, DU-145, DU145, example compound alone, read-out: CDK8 inh GI50): 5 µM
